Literature values in the PKSmart pharmacokinetics tables (Seal et al. 2025).

How the values were obtained:
[1] = Lombardo, Berellini, Obach 2018, Drug Metab Dispos 46:1466, doi 10.1124/dmd.118.082966; conditions: human; for MRT / Vd / clearance / half-life: in vivo, iv; for fraction unbound: plasma
[2] = Lombardo et al. 2013, J Clin Pharmacol 53:178, doi 10.1177/0091270012440282; conditions: for Vd / clearance: in vivo, iv; for fraction unbound: plasma

## CO[C@@]1(NC(=O)Cc2cccs2)C(=O)N2C(C(=O)O)=C(COC(N)=O)CS[C@@H]21
[1]
  MRT: 0.79 h
  Vd: 0.17 L/kg
  clearance: 0.216 L/h/kg
  half-life: 0.81 h
  fraction unbound: 0.73
[2]; dog
  Vd: 0.6 L/kg
  clearance: 0.66 L/h/kg

## COc1cc2nc(N3CCN(C(=O)C(C)OC)CC3)nc(N)c2cc1OC (centres undefined)
[1]
  MRT: 13.7 h
  Vd: 0.44 L/kg
  clearance: 0.0318 L/h/kg
[2]; rat
  Vd: 5.9 L/kg
  clearance: 2.65 L/h/kg

## Nc1nc(NC2CC2)c2ncn([C@H]3C=C[C@@H](CO)C3)c2n1
[1]
  MRT: 1.1 h
  Vd: 0.84 L/kg
  clearance: 0.78 L/h/kg
  half-life: 1 h
  fraction unbound: 0.5
[2]; rat
  clearance: 1.8 L/h/kg

## NC(Cc1ccc(O)c(O)c1)C(=O)O (centres undefined)
[1]
  MRT: 1.2 h
  Vd: 1.7 L/kg
  clearance: 1.38 L/h/kg
  half-life: 1.3 h
  fraction unbound: 0.76
[2]; dog
  Vd: 0.76 L/kg
  clearance: 1.42 L/h/kg
[2]; rat
  clearance: 6.54 L/h/kg

## O=C(c1ccc(F)cc1)C1CCN(CCn2c(=O)[nH]c3ccccc3c2=O)CC1
[1]
  half-life: 12 h
[2]; dog
  clearance: 1.48 L/h/kg
  fraction unbound: 0.0948
[2]; rat
  clearance: 0.228 L/h/kg
  fraction unbound: 0.01

## CCC1(c2cccc(O)c2)CCCCN(C)C1 (centres undefined)
[1]
  MRT: 2 h
  Vd: 3.3 L/kg
  clearance: 1.68 L/h/kg
  half-life: 1.7 h
  fraction unbound: 0.73
[2]; rat
  Vd: 4.4 L/kg
  clearance: 3.5 L/h/kg

## C[C@H](Cn1cnc2c(N)ncnc21)OCP(=O)(O)O
[1]
  MRT: 3.8 h
  Vd: 0.83 L/kg
  clearance: 0.186 L/h/kg
  half-life: 5.8 h
  fraction unbound: 0.93
[2]; dog
  Vd: 0.9 L/kg
  clearance: 0.354 L/h/kg
[2]; monkey
  clearance: 0.972 L/h/kg

## NC[C@H]1O[C@H](O[C@H]2[C@H](O)[C@@H](O[C@H]3O[C@H](CO)[C@@H](O)[C@H](N)[C@H]3O)[C@H](N)C[C@@H]2N)[C@H](N)C[C@@H]1O
[1]
  MRT: 2.4 h
  Vd: 0.23 L/kg
  clearance: 0.096 L/h/kg
  half-life: 2 h
  fraction unbound: 1
[2]; rat
  Vd: 0.68 L/kg
  clearance: 0.942 L/h/kg

## COc1cc(Cc2cnc(N)nc2N)cc(OC)c1OC
[1]
  MRT: 12 h
  Vd: 1.5 L/kg
  half-life: 9.6 h
[2]; dog
  Vd: 1.74 L/kg
  fraction unbound: 0.708
[2]; rat
  Vd: 2.1 L/kg
  fraction unbound: 0.51

## CCN1CCC[C@H]1CNC(=O)c1c(OC)ccc(Br)c1OC
[1]
  MRT: 6.4 h
  Vd: 0.65 L/kg
  clearance: 0.102 L/h/kg
  half-life: 5.5 h
[2]; dog
  Vd: 1.6 L/kg
  clearance: 0.294 L/h/kg
  fraction unbound: 0.12
[2]; rat
  Vd: 4.5 L/kg
  clearance: 10.2 L/h/kg
  fraction unbound: 0.74

## CN(C(=O)c1c(O)c2ccccc2n(C)c1=O)c1ccccc1
[1]
  MRT: 43 h
  Vd: 0.21 L/kg
  clearance: 0.00492 L/h/kg
  half-life: 31 h
[2]; rat
  Vd: 0.32 L/kg
  clearance: 0.0102 L/h/kg

## COc1ccc2c3c1OC1C(=O)CC[C@@]4(O)[C@@H](C2)N(C)CC[C@]314 (some centres undefined)
[1]
  fraction unbound: 0.55
[2]; rat
  fraction unbound: 0.87

## O=C(O)c1cc(-c2ccc(F)cc2F)ccc1O
[1]
  MRT: 14 h
  Vd: 0.097 L/kg
  clearance: 0.006 L/h/kg
  half-life: 10 h
[2]; rat
  Vd: 0.15 L/kg
  clearance: 0.0912 L/h/kg

## Nc1ccc(S(=O)(=O)c2ccc(N)cc2)cc1
[1]
  MRT: 29 h
  Vd: 0.83 L/kg
  fraction unbound: 0.25
[2]; rat
  Vd: 1.6 L/kg
  clearance: 0.312 L/h/kg

## CCCC[C@@H]1CC(=O)[C@]2(O)O[C@@H]3[C@@H](NC)[C@@H](O)[C@@H](NC)[C@H](O)[C@H]3O[C@@H]2O1
[1]
  MRT: 6.9 h
  Vd: 0.7 L/kg
  clearance: 0.102 L/h/kg
  half-life: 11 h
  fraction unbound: 0.65
[2]; dog
  Vd: 49.8 L/kg
  clearance: 0.161 L/h/kg
  fraction unbound: 0.533
[2]; rat
  Vd: 4.46 L/kg
  clearance: 0.257 L/h/kg
  fraction unbound: 0.62

## COc1cccc2c1C(=O)c1c(O)c3c(c(O)c1C2=O)C[C@@](O)(C(=O)CO)C[C@@H]3O[C@H]1C[C@H](N)[C@H](I)[C@H](C)O1
[1]
  MRT: 6.4 h
  Vd: 53.6 L/kg
  clearance: 8.4 L/h/kg
  half-life: 10.3 h
[2]; dog
  Vd: 2.6 L/kg
  clearance: 0.39 L/h/kg
[2]; monkey
  Vd: 14 L/kg
  clearance: 2.6 L/h/kg
[2]; rat
  Vd: 14 L/kg
  clearance: 2.2 L/h/kg

## CON=C(C(=O)NC1C(=O)N2C(C(=O)[O-])=C(C[n+]3cccc4c3CCC4)CS[C@H]12)c1csc(N)n1 (some centres undefined)
[1]
  MRT: 2.1 h
  Vd: 0.24 L/kg
  clearance: 0.114 L/h/kg
  half-life: 1.7 h
  fraction unbound: 0.9
[2]; dog
  Vd: 0.22 L/kg
  clearance: 0.192 L/h/kg
  fraction unbound: 0.542
[2]; monkey
  Vd: 0.27 L/kg
  clearance: 0.144 L/h/kg
  fraction unbound: 0.446
[2]; rat
  Vd: 0.3 L/kg
  clearance: 0.57 L/h/kg

## O=NN(CCCl)C(=O)NCCCl
[1]
  MRT: 0.26 h
  Vd: 1.2 L/kg
  clearance: 4.68 L/h/kg
  half-life: 0.37 h
  fraction unbound: 0.23
[2]; dog
  Vd: 1.1 L/kg
  clearance: 1.07 L/h/kg
[2]; monkey
  Vd: 0.9 L/kg
  clearance: 1.26 L/h/kg

## CC(C)(ON=C(C(=O)NC1C(=O)N2C(C(=O)O)=C(C[n+]3ccccc3)CS[C@H]12)c1csc(N)n1)C(=O)[O-] (some centres undefined)
[1]
  MRT: 2.2 h
  Vd: 0.31 L/kg
  clearance: 0.144 L/h/kg
  half-life: 1.8 h
  fraction unbound: 0.79
[2]; dog
  Vd: 0.21 L/kg
  clearance: 0.192 L/h/kg
  fraction unbound: 1
[2]; monkey
  Vd: 0.26 L/kg
  clearance: 0.126 L/h/kg
  fraction unbound: 0.945
[2]; rat
  Vd: 0.3 L/kg
  clearance: 0.522 L/h/kg

## CCCC(=O)OCOC(=O)C1=C(C)NC(C)=C(C(=O)OC)C1c1cccc(Cl)c1Cl (centres undefined)
[1]
  MRT: 0.07 h
  Vd: 0.58 L/kg
  half-life: 0.3 h
[2]; dog
  Vd: 0.21 L/kg
[2]; rat
  Vd: 0.44 L/kg

## COc1cccc([C@@]2(O)CCCC[C@@H]2CN(C)C)c1
[1]
  MRT: 7.2 h
  Vd: 2.8 L/kg
  clearance: 0.39 L/h/kg
  half-life: 5.8 h
[2]; dog
  Vd: 3.01 L/kg
  clearance: 3.28 L/h/kg
  fraction unbound: 0.745
[2]; rat
  Vd: 3.86 L/kg
  clearance: 3.81 L/h/kg
  fraction unbound: 0.75

## CCC(CC)O[C@@H]1C=C(C(=O)O)C[C@H](N)[C@H]1NC(C)=O
[1]
  MRT: 1.3 h
  Vd: 0.37 L/kg
  clearance: 0.288 L/h/kg
  half-life: 1.8 h
[2]; dog
  Vd: 0.56 L/kg
  clearance: 0.318 L/h/kg
  fraction unbound: 0.304
[2]; rat
  Vd: 1.3 L/kg
  clearance: 1.5 L/h/kg

## CC(C)(C)NCC(O)c1cc(O)cc(O)c1 (centres undefined)
[1]
  MRT: 7.4 h
  Vd: 1.5 L/kg
  clearance: 0.204 L/h/kg
  half-life: 15 h
[2]; rat
  Vd: 3.3 L/kg
  clearance: 3.6 L/h/kg

## CC1(C)S[C@@H]2C(NC(=O)C(C(=O)O)c3ccsc3)C(=O)N2C1C(=O)O (some centres undefined)
[1]
  MRT: 1.5 h
  Vd: 0.16 L/kg
  clearance: 0.108 L/h/kg
  half-life: 1 h
  fraction unbound: 0.55
[2]; dog
  Vd: 0.28 L/kg
  clearance: 0.258 L/h/kg

## CCOC(=O)C1(c2ccccc2)CCN(C)CC1
[1]
  MRT: 6.4 h
  Vd: 2.3 L/kg
  clearance: 0.294 L/h/kg
  half-life: 7.9 h
  fraction unbound: 0.42
[2]; dog
  Vd: 2.4 L/kg
  clearance: 2.58 L/h/kg
[2]; rat
  Vd: 9.2 L/kg
  clearance: 14.7 L/h/kg

## COCc1c(-c2ccc(F)cc2)c(=CC[C@@H](O)C[C@@H](O)CC(=O)O)c(C(C)C)nc1=C(C)C
[1]
  MRT: 1.8 h
  Vd: 0.33 L/kg
  clearance: 0.174 L/h/kg
  half-life: 1.8 h
[2]; rat
  Vd: 3 L/kg
  clearance: 1.62 L/h/kg

## Cc1ncc([N+](=O)[O-])n1CCO
[1]
  MRT: 7.8 h
  Vd: 0.4 L/kg
  clearance: 0.051 L/h/kg
  half-life: 7.1 h
[2]; dog
  Vd: 0.1 L/kg
  clearance: 0.15 L/h/kg
  fraction unbound: 0.983
[2]; rat
  Vd: 1.2 L/kg
  clearance: 0.348 L/h/kg

## O=C1c2c(O)ccc(O)c2C(=O)c2c(NCCNCCO)ccc(NCCNCCO)c21
[1]
  MRT: 25 h
  Vd: 12 L/kg
  clearance: 0.474 L/h/kg
  half-life: 53 h
  fraction unbound: 0.25
[2]; dog
  Vd: 26.6 L/kg
  clearance: 0.6 L/h/kg

## O=[N+]([O-])O[C@@H]1CO[C@H]2[C@@H]1OC[C@@H]2O
[1]
  MRT: 5.8 h
  Vd: 0.7 L/kg
  clearance: 0.12 L/h/kg
  half-life: 4.1 h
[2]; dog
  Vd: 0.82 L/kg
  clearance: 0.414 L/h/kg
[2]; rat
  clearance: 0.15 L/h/kg

## CO[C@@]1(NC(O)=c2sc(=C(C(N)=O)C(=O)O)s2)C(=O)N2C(C(=O)O)=C(CSc3nnnn3C)CS[C@@H]21
[1]
  MRT: 5.2 h
  Vd: 0.13 L/kg
  clearance: 0.0252 L/h/kg
  half-life: 4.5 h
  fraction unbound: 0.15
[2]; dog
  Vd: 0.25 L/kg
  clearance: 0.24 L/h/kg
  fraction unbound: 0.6
[2]; monkey
  Vd: 0.17 L/kg
  clearance: 0.102 L/h/kg
  fraction unbound: 0.13
[2]; rat
  Vd: 0.25 L/kg
  clearance: 0.767 L/h/kg
  fraction unbound: 0.7
